Results reported in the supplement of paper PMC10307832.

Legend:
Experiment in all cases: relative viability (nuclei count vs DMSO), 5 days (fraction); higher = more cells survive
CAL-12T = tested on: CAL-12T
How it was run: (§1)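 The day after seeding in 1536-well plates, lung cancer cell lines were treated by pin tool with a single drug, or with a fixed anchor-drug dose together with five library-drug doses (not always all listed) in √10 steps. After 5 days, a combined fix-and-stain solution (final 0.05% Triton X-100, 1% formaldehyde, 1 ug/ml Hoechst) was added. Nuclei counted on 4× images gave relative viability as treated counts over vehicle counts, reported as the median of duplicate plates.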

NCI-H1666 = tested on: NCI-H1666
How it was run: as §1

COR-L23 = tested on: COR-L23
How it was run: as §1

NCI-H1437 = tested on: NCI-H1437
How it was run: as §1

NCI-H460 = tested on: NCI-H460
How it was run: as §1

PC-14 = tested on: PC-14
How it was run: as §1

NCI-H1755 = tested on: NCI-H1755
How it was run: as §1

NCI-H1792 = tested on: NCI-H1792
How it was run: as §1

NCI-H1651 = tested on: NCI-H1651
How it was run: as §1

NCI-H2170 = tested on: NCI-H2170
How it was run: as §1

NCI-H520 = tested on: NCI-H520
How it was run: as §1

LXF-289 = tested on: LXF-289
How it was run: as §1

SK-MES-1 = tested on: SK-MES-1
How it was run: as §1

HCC-44 = tested on: HCC-44
How it was run: as §1

NCI-H1563 = tested on: NCI-H1563
How it was run: as §1

BEN = tested on: BEN
How it was run: as §1

NCI-H1650 = tested on: NCI-H1650
How it was run: as §1

LU99A = tested on: LU99A
How it was run: as §1

NCI-H1355 = tested on: NCI-H1355
How it was run: as §1

NCI-H2087 = tested on: NCI-H2087
How it was run: as §1

NCI-H1993 = tested on: NCI-H1993
How it was run: as §1

NCI-H2085 = tested on: NCI-H2085
How it was run: as §1

SMILES: Cc1cn(-c2cc(NC(=O)c3ccc(C)c(Nc4nccc(-c5cccnc5)n4)c3)cc(C(F)(F)F)c2)cn1 [Nilotinib] + COc1cccc2cc(-c3nc([C@H]4CC[C@H](C(=O)O)CC4)n4ncnc(N)c34)[nH]c12 [OSI-027] (partner 0.5 µM)
- relative viability (CAL-12T; first compound 0.001 µM): 0.612
- relative viability (CAL-12T; first compound 0.003162 µM): 0.413
- relative viability (CAL-12T; first compound 0.01 µM): 0.426
- relative viability (CAL-12T; first compound 0.03162 µM): 0.427
- relative viability (CAL-12T; first compound 0.1 µM): 0.527
- relative viability (NCI-H1666; first compound 0.001 µM): 0.823
- relative viability (NCI-H1666; first compound 0.003162 µM): 0.846
- relative viability (NCI-H1666; first compound 0.01 µM): 0.879
- relative viability (NCI-H1666; first compound 0.03162 µM): 0.753
- relative viability (NCI-H1666; first compound 0.1 µM): 0.899
- relative viability (COR-L23; first compound 0.001 µM): 0.622
- relative viability (COR-L23; first compound 0.003162 µM): 0.957
- relative viability (COR-L23; first compound 0.01 µM): 0.92
- relative viability (COR-L23; first compound 0.03162 µM): 0.462
- relative viability (COR-L23; first compound 0.1 µM): 0.596
- relative viability (NCI-H1437; first compound 0.001 µM): 0.826
- relative viability (NCI-H1437; first compound 0.003162 µM): 0.815
- relative viability (NCI-H1437; first compound 0.01 µM): 0.876
- relative viability (NCI-H1437; first compound 0.03162 µM): 0.619
- relative viability (NCI-H1437; first compound 0.1 µM): 0.902
- relative viability (NCI-H460; first compound 0.001 µM): 0.367
- relative viability (NCI-H460; first compound 0.003162 µM): 0.2
- relative viability (NCI-H460; first compound 0.01 µM): 0.327
- relative viability (NCI-H460; first compound 0.03162 µM): 0.255
- relative viability (NCI-H460; first compound 0.1 µM): 0.0921
- relative viability (PC-14; first compound 0.001 µM): 0.611
- relative viability (PC-14; first compound 0.003162 µM): 1.03
- relative viability (PC-14; first compound 0.01 µM): 0.846
- relative viability (PC-14; first compound 0.03162 µM): 0.312
- relative viability (PC-14; first compound 0.1 µM): 0.254
- relative viability (NCI-H1755; first compound 0.001 µM): 0.792
- relative viability (NCI-H1755; first compound 0.003162 µM): 0.617
- relative viability (NCI-H1755; first compound 0.01 µM): 0.74
- relative viability (NCI-H1755; first compound 0.03162 µM): 0.553
- relative viability (NCI-H1755; first compound 0.1 µM): 0.383
- relative viability (NCI-H1792; first compound 0.001 µM): 0.503
- relative viability (NCI-H1792; first compound 0.003162 µM): 0.473
- relative viability (NCI-H1792; first compound 0.01 µM): 0.667
- relative viability (NCI-H1792; first compound 0.1 µM): 0.555
- relative viability (NCI-H1651; first compound 0.001 µM): 0.638
- relative viability (NCI-H1651; first compound 0.003162 µM): 0.727
- relative viability (NCI-H1651; first compound 0.01 µM): 0.842
- relative viability (NCI-H1651; first compound 0.03162 µM): 0.508
- relative viability (NCI-H1651; first compound 0.1 µM): 0.403
- relative viability (NCI-H2170; first compound 0.001 µM): 0.662
- relative viability (NCI-H2170; first compound 0.003162 µM): 0.589
- relative viability (NCI-H2170; first compound 0.01 µM): 0.832
- relative viability (NCI-H2170; first compound 0.03162 µM): 0.828
- relative viability (NCI-H2170; first compound 0.1 µM): 0.563
- relative viability (NCI-H520; first compound 0.001 µM): 0.269
- relative viability (NCI-H520; first compound 0.003162 µM): 0.279
- relative viability (NCI-H520; first compound 0.01 µM): 0.325
- relative viability (NCI-H520; first compound 0.03162 µM): 0.281
- relative viability (NCI-H520; first compound 0.1 µM): 0.276
- relative viability (LXF-289; first compound 0.001 µM): 0.807
- relative viability (LXF-289; first compound 0.003162 µM): 0.965
- relative viability (LXF-289; first compound 0.01 µM): 0.94
- relative viability (LXF-289; first compound 0.03162 µM): 0.826
- relative viability (LXF-289; first compound 0.1 µM): 0.532
- relative viability (SK-MES-1; first compound 0.001 µM): 0.474
- relative viability (SK-MES-1; first compound 0.003162 µM): 0.544
- relative viability (SK-MES-1; first compound 0.01 µM): 0.662
- relative viability (SK-MES-1; first compound 0.03162 µM): 0.342
- relative viability (SK-MES-1; first compound 0.1 µM): 0.327
- relative viability (HCC-44; first compound 0.001 µM): 0.498
- relative viability (HCC-44; first compound 0.003162 µM): 0.391
- relative viability (HCC-44; first compound 0.01 µM): 0.43
- relative viability (HCC-44; first compound 0.03162 µM): 0.505
- relative viability (HCC-44; first compound 0.1 µM): 0.382
- relative viability (NCI-H1563; first compound 0.001 µM): 0.72
- relative viability (NCI-H1563; first compound 0.003162 µM): 0.731
- relative viability (NCI-H1563; first compound 0.01 µM): 0.681
- relative viability (NCI-H1563; first compound 0.03162 µM): 0.74
- relative viability (NCI-H1563; first compound 0.1 µM): 0.666
- relative viability (BEN; first compound 0.001 µM): 0.295
- relative viability (BEN; first compound 0.003162 µM): 0.285
- relative viability (BEN; first compound 0.01 µM): 0.348
- relative viability (BEN; first compound 0.03162 µM): 0.283
- relative viability (BEN; first compound 0.1 µM): 0.277
- relative viability (NCI-H1650; first compound 0.001 µM): 0.691
- relative viability (NCI-H1650; first compound 0.003162 µM): 0.792
- relative viability (NCI-H1650; first compound 0.01 µM): 0.569
- relative viability (NCI-H1650; first compound 0.03162 µM): 0.464
- relative viability (NCI-H1650; first compound 0.1 µM): 0.426
- relative viability (LU99A; first compound 0.001 µM): 0.272
- relative viability (LU99A; first compound 0.003162 µM): 0.304
- relative viability (LU99A; first compound 0.01 µM): 0.256
- relative viability (LU99A; first compound 0.03162 µM): 0.313
- relative viability (LU99A; first compound 0.1 µM): 0.273
- relative viability (NCI-H1355; first compound 0.001 µM): 0.384
- relative viability (NCI-H1355; first compound 0.003162 µM): 0.388
- relative viability (NCI-H1355; first compound 0.01 µM): 0.324
- relative viability (NCI-H1355; first compound 0.03162 µM): 0.314
- relative viability (NCI-H1355; first compound 0.1 µM): 0.329
- relative viability (NCI-H2087; first compound 0.001 µM): 0.477
- relative viability (NCI-H2087; first compound 0.003162 µM): 0.557
- relative viability (NCI-H2087; first compound 0.01 µM): 0.499
- relative viability (NCI-H2087; first compound 0.03162 µM): 0.221
- relative viability (NCI-H2087; first compound 0.1 µM): 0.239
- relative viability (NCI-H1993; first compound 0.001 µM): 0.547
- relative viability (NCI-H1993; first compound 0.003162 µM): 0.551
- relative viability (NCI-H1993; first compound 0.01 µM): 0.536
- relative viability (NCI-H1993; first compound 0.03162 µM): 0.487
- relative viability (NCI-H1993; first compound 0.1 µM): 0.562
- relative viability (NCI-H2085; first compound 0.001 µM): 0.695
- relative viability (NCI-H2085; first compound 0.003162 µM): 0.549
- relative viability (NCI-H2085; first compound 0.01 µM): 0.699
- relative viability (NCI-H2085; first compound 0.03162 µM): 0.428
- relative viability (NCI-H2085; first compound 0.1 µM): 0.467
